Experimental data reported in patent US20200383905A1 (priority 2015, published 2020).
Where a name gives a salt, the structure may show the parent alone. Read-outs that look alike come from different tables or passages of the source.

Columns and labels:
[1] = Observed steady-state PK of oral tramadol Q6h (threshold PK parameters); conditions: for AUC / Cmax: human, plasma, po
[2] = cited from earlier work
[3] = mean cumulative doses 449 to 868.3 mg over 24, 36 and 48 h; cited from earlier work
rats and dogs = conditions: repeat-dose; cited from earlier work
[4] = Example 5: multiple-dose 3-way crossover PK study of two IV regimens vs 100 mg oral Q6h; conditions: for Cmax: human, plasma, iv, 50 mg, 50 mg IV regimen; for AUCtau 1: first dosing interval
From the text: The term “STD” as used herein means standard deviation. […] The term “Css” means steady-state concentration. The term “Cmax” means maximum concentration. The term “AUC” means area under the curve. […] The term “PIT” means peak to trough.

[5] = tested on: experienced opioid abusers; conditions: tramadol 100 and 200 mg IV, cited from earlier work; for Ratings of feel drug effect compared to placebo / Ratings of liking: morphine 10 and 20 mg IV over 5 minutes; for Ratings of feel drug effect compared to placebo: 10 experienced opioid abusers
[6] = in vivo; cited from earlier work
[7] = oral administration; cited from earlier work
μ opioid = conditions: animal model; cited from earlier work
animal model = conditions: cited from earlier work
postoperative pain = conditions: IV or IM intermittent injection, dose titrated to pain response; cited from earlier work
[8] = plasma tramadol, 50 mg IV at h 0, 2, 4 then q4h, mean
[9] = plasma tramadol, 75 mg IV at h 0, 3, 6 then q6h, mean
[10] = plasma tramadol, 100 mg oral q6h, mean
[11] = 60 mg oral tramadol dose, by extrapolation
[12] = 100 mg oral tramadol Q6h, steady-state, geometric mean, observed
[13] = 120 mg oral tramadol dose, by extrapolation
[14] = plasma 0-desmethyltramadol, tramadol 50 mg IV at h 0, 2, 4 then q4h, mean
[15] = plasma 0-desmethyltramadol, tramadol 75 mg IV at h 0, 3, 6 then q6h, mean
[16] = plasma 0-desmethyltramadol, tramadol 100 mg oral q6h, mean

Compound: COc1cccc([C@]2(O)CCCC[C@H]2CN(C)C)c1 (racemic) [Tramadol, (±)cis-2-[(dimethylamino)methyl]-1-(3-methoxyphenyl) cyclohexanol hydrochloride]
- AUC ([1]; 50 mg): 1640 ng·h/mL
- Cmax ([1]; 50 mg): 340 ng/mL
- Cmax ([1]; 60 mg): 408 ng/mL
- AUC ([1]; 100 mg): 3230 ng·h/mL
- Cmax ([1]; 100 mg): 676 ng/mL
- AUC ([1]; 120 mg): 3880 ng·h/mL
- Cmax ([1]; 120 mg): 811 ng/mL
- AUC0-24h ([2]; 100 mg i.v.): 3709 ± 977 ng·h/mL
- Vd ([2]; 100 mg i.v.): 203 L
- t1/2 ([2]; 100 mg i.v.): 5.2 h
- AUC0-24h ([2]; 100 mg p.o.): 2488 ± 774 ng·h/mL
- Cmax ([2]; 100 mg p.o.): 280 ± 49 ng/mL
- Vd ([2]; 100 mg p.o.): 306 L
- Distribution half-life, initial phase ([2]; IV administration): 0.31 ± 0.17 h
- Half-life of slower distribution phase ([2]; IV administration): 1.7 ± 0.4 h
- Absolute bioavailability with continuous dosing ([2]; oral, continuous dosing (Liao 1992)): 90-100%
- Serious adverse effects [3]: no serious adverse effects were observed
- Dose with behavioral/clinical signs and convulsions (rats and dogs): > 25 mg/kg/day
- Cmax ([4]; Mean Cmax after the first dose, plasma tramadol): ~273 ng/mL
- Cmax ([4]; Mean Cmax after the second dose, plasma tramadol): ~451 ng/mL
- Cmax ([4]; Mean Cmax concentration after the third administered dose, plasma tramadol): ~666 ng/mL
- C48 [4, 8]: 448 ng/mL
- Cmax(2-4) [4, 8]: 479 ng/mL
- P/T Ratio First [4, 8]: 1.4566
- P/T Ratio Last [4, 8]: 1.6370
- C48 [4, 9]: 354 ng/mL
- P/T Ratio First [4, 9]: 2.0658
- P/T Ratio Last [4, 9]: 2.3692
- C48 [4, 10]: 497 ng/mL
- P/T Ratio First [4, 10]: 1.9824
- P/T Ratio Last [4, 10]: 1.4400
- Ratings of feel drug effect compared to placebo [5]: significantly increased ratings
- Ratings of liking [5]: neither dose of tramadol increased ratings
- Time to reach steady-state [6]: 42 to 48 h
- Fertility or teratogenic effects [7]: no safety concerns with respect to fertility or teratogenic effects

Compound: CN(C)C[C@H]1CCCC[C@]1(O)c1cccc(O)c1 [M1, 0-desmethyltramadol]
- M1 AUC6 ([1]; 50 mg oral tramadol dose): 491 ng·h/mL
- M1 Cmax ([1]; 50 mg oral tramadol dose): 96 ng/mL
- M1 AUC6 [1, 11]: 589 ng·h/mL
- M1 Cmax [1, 11]: 115 ng/mL
- M1 AUC6 [1, 12]: 668 ng·h/mL
- M1 Cmax [1, 12]: 125 ng/mL
- M1 AUC6 [1, 13]: 802 ng·h/mL
- M1 Cmax [1, 13]: 150 ng/mL
- Potency in μ opioid binding, times more potent than the parent compound (μ opioid): 200 times
- Potency in producing analgesia, times more potent than the parent compound (animal model): 6 times
- AUCtau 1 [4, 14]: 39.93 ng·h/mL
- AUCtau n ([4]; plasma 0-desmethyltramadol, tramadol 50 mg IV at h 0, 2, 4 then q4h, last dosing interval, mean): 355.6 ng·h/mL
- C48 [4, 14]: 81.7 ng/mL
- AUCtau 1 [4, 15]: 108.3 ng·h/mL
- C48 [4, 15]: 75.9 ng/mL
- AUCtau 1 [4, 16]: 272.1 ng·h/mL
- C48 [4, 16]: 111 ng/mL
- Cmax(42-48) ([4]; plasma 0-desmethyltramadol, tramadol 100 mg oral q6h, steady-state, mean): about 146 ng/mL

Compound: CN1CC[C@]23c4c5ccc(O)c4O[C@H]2[C@@H](O)C=C[C@H]3[C@H]1C5 [morphine]
- Reduction of pain intensity after 4 to 6 hours (postoperative pain): 69.8%
- Ratings on the ARCI-MBG scale ([5]; morphine 20 mg IV over 5 minutes): increased ratings on the ARCI-MBG scale
- Ratings of feel drug effect compared to placebo [5]: significantly increased ratings
- Ratings of liking [5]: significantly increased ratings
